Structures can show the parent of a compound that is named as a salt.

The test deals with T1, recombinant full-length WRN protein (1-1432) (Homo sapiens, UniProt Q14191).
T1 construct: recombinant full-length WRN protein (1-1432)
Nature of the test: WRN unwinding activity, fluorogenic 384-well assay (Example A). The format is biochemical. The conditions noted are these: WRN unwinding activity, 4 hr; Table 2; read-out: 4 hr UNW pIC50 (converted). Here is the method: Functional WRN unwinding activity can be measured using a fluorogenic plate based 384 well assay configured to measure the separation of labeled double stranded DNA substrate. Compounds were dosed out in neat DMSO with a 1:3 serial dilution scheme. 100 nL of compound was stamped into Greiner low volume black assay plates (Greiner Cat #784076) using the Echo Acoustic Dispenser to generate assay ready plates. All solutions were prepared in assay buffer (25 mM TRIS (pH8.0), 5 mM NaCl, 2 mM MgCl2, 1 mM DTT, 0.05% BSA) for this 10 μL low volume reaction. To prepare the solutions, a 2×WRN Enzyme cocktail was made containing 200 pM of recombinant full-length WRN protein (1-1432). A 2× Substrate cocktail was made to consist of both 200 μM ATP (any ultrapure ATP sample) and 12 nM of the fluorescent quenched labeled double stranded DNA oligomer (IDT Custom synthesis; 5′-5IABkFQ (SEQ ID NO. 1)/GCACTGGCCGTCGTTTTACGGTCGTGACT-3′ (SEQ ID NO. 2): 5′-TTTTTTACTTAACGACGGCCAGTGC (SEQ ID NO. 3)/36-TAMTSP/-3′ (SEQ ID NO. 4)). To start the reaction, 5 μL of assay buffer was added to a single column to serve as the low control. Following this, 5 μL of 2×WRN Enzyme was added in all wells except the buffer low control wells. The reaction plate was covered and incubated at ambient temperature for 4 hours to allow for time dependent inhibition if it existed. After 4 hours, the addition of 5 μL of 2×-ATP/DNA substrate cocktail was added across all wells of the assay plate. This initiated the reaction, as the plate was incubated at ambient temperature for 60 minutes for the unwinding reaction to occur. A 10 mM EDTA solution was prepared and added at 5 μL across the entire plate after 60 minutes to quench the samples for an endpoint measurement. Fluorescent intensity was measured using excitation and emission wavelengths of 525 nm and 598 nm, respectively. High florescent intensity (DMSO with buffer) represents full inhibition of unwinding activity and low florescent intensity (DMSO with enzyme) represents no inhibition of unwinding activity. The potency of the compounds was determined using a four-parameter inhibition model to generate pIC50, Hill Slope, maximum inhibition (see Table 2).

T1 sequence (Q14191 whole entry): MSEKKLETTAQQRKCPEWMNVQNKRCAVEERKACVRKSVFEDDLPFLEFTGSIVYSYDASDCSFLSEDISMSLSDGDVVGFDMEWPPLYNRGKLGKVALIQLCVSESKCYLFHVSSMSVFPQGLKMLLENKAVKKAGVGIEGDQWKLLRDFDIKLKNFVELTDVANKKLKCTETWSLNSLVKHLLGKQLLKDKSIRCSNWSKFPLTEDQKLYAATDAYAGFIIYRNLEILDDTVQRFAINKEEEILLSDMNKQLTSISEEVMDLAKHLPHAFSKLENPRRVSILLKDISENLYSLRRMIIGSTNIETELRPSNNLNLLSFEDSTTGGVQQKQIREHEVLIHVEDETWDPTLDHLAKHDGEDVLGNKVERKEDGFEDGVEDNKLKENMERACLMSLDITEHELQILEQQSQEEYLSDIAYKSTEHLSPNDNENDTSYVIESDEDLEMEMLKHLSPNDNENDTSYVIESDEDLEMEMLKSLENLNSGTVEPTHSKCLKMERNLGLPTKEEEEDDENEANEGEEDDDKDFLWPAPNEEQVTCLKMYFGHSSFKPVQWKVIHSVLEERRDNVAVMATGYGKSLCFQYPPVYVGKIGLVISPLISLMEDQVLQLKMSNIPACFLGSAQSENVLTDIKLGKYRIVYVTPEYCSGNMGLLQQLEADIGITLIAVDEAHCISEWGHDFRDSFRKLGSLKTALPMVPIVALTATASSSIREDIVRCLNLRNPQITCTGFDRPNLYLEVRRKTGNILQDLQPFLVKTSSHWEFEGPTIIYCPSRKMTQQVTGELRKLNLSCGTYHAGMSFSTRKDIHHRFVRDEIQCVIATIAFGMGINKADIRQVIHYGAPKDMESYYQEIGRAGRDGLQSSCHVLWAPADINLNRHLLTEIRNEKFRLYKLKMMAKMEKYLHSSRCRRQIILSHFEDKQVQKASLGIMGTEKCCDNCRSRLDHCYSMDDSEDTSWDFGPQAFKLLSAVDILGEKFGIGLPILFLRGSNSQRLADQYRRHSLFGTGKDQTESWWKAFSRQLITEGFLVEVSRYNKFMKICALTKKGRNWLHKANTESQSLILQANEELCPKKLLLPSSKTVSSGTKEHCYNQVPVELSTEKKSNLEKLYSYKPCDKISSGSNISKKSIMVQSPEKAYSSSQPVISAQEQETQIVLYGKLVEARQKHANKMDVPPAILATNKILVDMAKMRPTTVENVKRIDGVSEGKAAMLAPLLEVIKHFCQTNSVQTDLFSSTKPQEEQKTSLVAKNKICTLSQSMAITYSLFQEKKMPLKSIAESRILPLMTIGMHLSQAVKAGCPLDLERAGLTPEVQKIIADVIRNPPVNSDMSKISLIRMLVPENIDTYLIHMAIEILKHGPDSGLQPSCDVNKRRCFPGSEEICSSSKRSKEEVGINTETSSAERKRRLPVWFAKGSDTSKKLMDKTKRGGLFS

With `Cc1nc2cc(S(=O)(=O)N(C)c3ccc([C@H]4C[C@@H](O)C[C@@H](C(=O)Nc5ccc(C(F)(F)F)cc5F)[C@@H]4C(=O)O)cc3)ccc2n1C` (single isomer, unassigned) [Example 144], the IC50 is 50.1 nM. For `CO[C@@H]1C[C@H](c2ccc(N(C)S(=O)(=O)c3ccc4c(c3)nc(C)n4C)cc2)[C@@H](C(=O)O)[C@H](C(=O)Nc2ccc(C(F)(F)F)cc2F)C1` (single isomer, unassigned) [Example 146] the value was 100 nM; for `Cc1nc2cc(S(=O)(=O)N(C)c3ccc([C@@H]4C[C@H](Oc5ccccc5)C[C@H](C(=O)Nc5ccc(C(F)(F)F)cc5F)[C@H]4C(=O)O)cc3)ccc2n1C` (single isomer, unassigned) [Example 153], 3160 nM. Take `Cc1nc2cc(S(=O)(=O)N(C)c3ccc([C@H]4CCC[C@@H](C(=O)Nc5ccc(C(F)(F)F)cn5)[C@@H]4C(=O)O)cc3)ccc2n1C` (single isomer, unassigned) [Example 169]: the IC50 was 7940 nM. Then `Cc1nc2cc(S(=O)(=O)N(C)c3ccc([C@H]4CCC[C@@H](C(=O)Nc5c(F)cc(C(C)C)cc5F)[C@@H]4C(=O)O)cc3)ccc2n1C` (single isomer, unassigned) [Example 170], with 79.4 nM.

As to `Cc1nc2cc(S(=O)(=O)N(C)c3ccc([C@H]4CCC[C@@H](COc5ccc(C(F)(F)F)cc5)[C@@H]4C(=O)O)cc3)cc([C@@H]3CCCNC3)c2n1C` (single isomer, unassigned) [Example 209, hydrochloride], the IC50 was 2000 nM. Consider `Cc1nc2cc(S(=O)(=O)Nc3ccc([C@H]4CCC[C@@H](C(=O)Nc5ccc(C(F)(F)F)cc5F)[C@@H]4C(=O)O)cc3)ccc2n1C` (single isomer, unassigned) [Example 223], for which the IC50 was 158 nM. Then `O=C(O)[C@@H]1[C@@H](c2ccc(C3CCS(=O)(=O)C3)cc2)CCC[C@H]1C(=O)Nc1ccc(C(F)(F)F)cc1F` (single isomer, unassigned) [Example 231, (1R,2S,6R)-2-(4-((R*)-1,1-dioxidotetrahydrothiophen-3-yl)phenyl)-6-((2-fluoro-4-(trifluoromethyl)phenyl)carbamoyl)cyclohexane-1-carboxylic acid], with 316 nM. Then `Cc1nc2cc(S(=O)(=O)N3CCOc4cc([C@@H]5CCC[C@H](C(=O)Nc6ccc(C(F)(F)F)cc6F)[C@H]5C(=O)O)ccc43)ccc2n1C` (single isomer, unassigned) [Example 242], with 794 nM; and `CN[C@@H]1C[C@H](C(=O)Nc2ccc(C(F)(F)F)cc2F)[C@@H](C(=O)O)[C@H](c2ccc(N(C)S(=O)(=O)c3ccc4c(c3)nc(C)n4C)cc2)C1` (single isomer, unassigned) [Example 257], with 251 nM; and `CC(=O)N[C@H]1C[C@H](COc2ccc(C(F)(F)F)cc2)[C@@H](C(=O)O)[C@H](c2ccc(N(C)S(=O)(=O)c3ccc4c(c3)nc(C)n4C)cc2)C1` (single isomer, unassigned) [Example 297], with 2510 nM. `Cc1nc2cc(S(=O)(=O)N(C)c3ccc([C@@H]4CNC[C@H](C(=O)Nc5ccc(C(F)(F)F)cc5F)[C@H]4C(=O)O)cc3)ccc2n1C` (single isomer, unassigned) [Example 307]: the IC50 was 631 nM. For `N#Cc1cnnc(-c2ccc(C3CCCC(C(=O)Nc4ccc(C(F)(F)F)cc4F)[C@@H]3C(=O)O)cc2)c1` (stereo in doubt) [Example 39, (1R,2R,6S)-2-(4-(5-cyanopyridazin-3-yl)phenyl)-6-((2-fluoro-4-(trifluoromethyl)phenyl)carbamoyl)cyclohe xane-1-carboxylic acid] the value was 2000 nM. `N#Cc1ccncc1-c1ccc(C2CCCC(C(=O)Nc3ccc(C(F)(F)F)cc3F)[C@@H]2C(=O)O)cc1` (stereo in doubt) [Example 49, (1R,2R,6S)-2-(4-(4-cyanopyridin-3-yl)phenyl)-6-((2-fluoro-4-(trifluoromethyl)phenyl)carbamoyl)cyclohe xane-1-carboxylic acid]: the IC50 is 1000 nM. In the case of `CCCO[C@@H]1C[C@H](C(=O)Nc2ccc(C(F)(F)F)cc2F)[C@@H](C(=O)O)[C@H](c2ccc(N(C)S(=O)(=O)c3ccc4c(c3)nc(C)n4C)cc2)C1` (stereo in doubt) [Example 150, rel-(1R,2R,4R,6S)-2-((2-fluoro-4-(trifluoromethyl)phenyl)carbamoyl)-4-propoxy-6-(4-((N,1,2-trimethyl-1H-benzo[d]imidazole)-5-sulfonamido)phenyl)cyclohexane-1-carboxylic acid], the IC50 was 3980 nM. Consider `Cc1nc2cc(S(=O)(=O)N(C)c3ccc([C@@H]4C[C@H](OCC5CCC5)C[C@H](C(=O)Nc5ccc(C(F)(F)F)cc5F)[C@H]4C(=O)O)cc3)ccc2n1C` (stereo in doubt) [Example 155, rel-(1R,2R,4R,6S)-4-(cyclobutylmethoxy)-2-((2-fluoro-4-(trifluoromethyl)phenyl)carbamoyl)-6-(4-((N,1,2-trimethyl-1H-benzo[d]imidazole)-5-sulfonamido)phenyl)cyclohexane-1-carboxylic acid], for which the IC50 was 794 nM.

With `Cc1nc2cc(S(=O)(=O)N(C)c3ccc([C@@H]4C[C@H](N(C)C)C[C@H](C(=O)Nc5ccc(C(F)(F)F)cc5F)[C@H]4C(=O)O)cc3)ccc2n1C` (stereo in doubt) [Example 252, rel-(1R,2R,4R,6S)-4-(dimethylamino)-2-((2-fluoro-4-(trifluoromethyl)phenyl)carbamoyl)-6-(4-((N,1,2-trimethyl-1H-benzo[d]imidazole)-5-sulfonamido)phenyl)cyclohexane-1-carboxylic acid], the IC50 was 63.1 nM.

In the case of `CC(=O)N(C)[C@H]1C[C@H](C(=O)Nc2ccc(C(F)(F)F)cc2F)[C@@H](C(=O)O)[C@H](c2ccc(N(C)S(=O)(=O)c3ccc4c(c3)nc(C)n4C)cc2)C1` (stereo in doubt) [Example 293, rel-(1R,2R,4S,6S)-2-((2-fluoro-4-(trifluoromethyl)phenyl)carbamoyl)-4-(N-methylacetamido)-6-(4-((N,1,2-trimethyl-1H-benzo[d]imidazole)-5-sulfonamido)phenyl)cyclohexane-1-carboxylic acid], the IC50 was 31.6 nM.

As for `Cc1nc2cc(S(=O)(=O)N(C)c3ccc([C@@H]4C[C@@H](N)C[C@H](C(=O)Nc5ccc(C(F)(F)F)cc5F)[C@H]4C(=O)O)cc3)ccc2n1C` (stereo in doubt) [Example 299, rel-(1R,2R,4S,6S)-4-amino-2-((2-fluoro-4-(trifluoromethyl)phenyl)carbamoyl)-6-(4-((N,1,2-trimethyl-1H-benzo[d]imidazole)-5-sulfonamido)phenyl)cyclohexane-1-carboxylic acid], the IC50 is 63.1 nM. On to `Cc1nc2cc(S(=O)(=O)N(C)c3ccc([C@@H]4C[C@H](N)C[C@H](C(=O)Nc5ccc(C(F)(F)F)cc5F)[C@H]4C(=O)O)cc3)ccc2n1C` (stereo in doubt) [Example 302, rel-(1R,2R,4R,6S)-4-amino-2-((2-fluoro-4-(trifluoromethyl)phenyl)carbamoyl)-6-(4-((N,1,2-trimethyl-1H-benzo[d]imidazole)-5-sulfonamido)phenyl)cyclohexane-1-carboxylic acid], for which the IC50 is 126 nM. Then `CC(=O)N1C[C@H](C(=O)Nc2ccc(C(F)(F)F)cc2F)[C@@H](C(=O)O)[C@H](c2ccc(N(C)S(=O)(=O)c3ccc4c(c3)nc(C)n4C)cc2)C1` (stereo in doubt) [Example 309, rel-(3R,4S,5R)-1-acetyl-3-((2-fluoro-4-(trifluoromethyl)phenyl)carbamoyl)-5-(4-((N,1,2-trimethyl-1H-benzo[d]imidazole)-5-sulfonamido)phenyl)piperidine-4-carboxylic acid], with 200 nM; and `Cc1nc2cc(S(=O)(=O)N(C)c3ccc([C@@H]4C[C@H](OC5CCC5)C[C@H](C(=O)Nc5ccc(C(F)(F)F)cc5F)[C@H]4C(=O)O)cc3)ccc2n1C` (stereo in doubt) [Example 326, rel-(1R,2R,4R,6S)-4-cyclobutoxy-2-((2-fluoro-4-(trifluoromethyl)phenyl)carbamoyl)-6-(4-((N,1,2-trimethyl-1H-benzo[d]imidazole)-5-sulfonamido)phenyl)cyclohexane-1-carboxylic acid], with 631 nM. For `Cc1nc2cc(S(=O)(=O)N(C)c3ccc([C@@H]4C[C@@H](NCC(F)(F)F)C[C@H](C(=O)Nc5ccc(C(F)(F)F)cc5F)[C@H]4C(=O)O)cc3)ccc2n1C` (stereo in doubt) [Example 335, rel-(1R,2R,4S,6S)-2-((2-fluoro-4-(trifluoromethyl)phenyl)carbamoyl)-4-((2,2,2-trifluoroethyl)amino)-6-(4-((N,1,2-trimethyl-1H-benzo[d]imidazole)-5-sulfonamido)phenyl)cyclohexane-1-carboxylic acid] the value was 2510 nM.

The values above are taken from patent US12662451B2, “Chemical compounds and uses thereof” (GLAXOSMITHKLINE INTELLECTUAL PROPERTY (NO.4) LIMITED, priority 2023, dated 2026).
